Results from patent US11033545B2, “Negative allosteric modulators of MGLUR5 for use in the treatment of mature brain damages” (Sinntaxis AB, priority 2016, dated 2021).

What was measured:
Type in all cases: in vivo
[1] = test system: male C57/BL6 mice; experiment: Infarct size after photothrombotic stroke in the mouse; conditions: 5 mg/kg i.p. for 5 days, FIG. 2B
Description: Tissue collection. The animals were deeply anesthetized (isoflurane) and perfusion-fixed with 4% paraformaldehyde (PFA) solution. Brains were collected and immersed in 4% PFA solution for 4 h, then transferred into a 25% sucrose phosphate buffer solution (0.1 M NaH2PO4, 0.1 M Na2HPO4) and stored at 4° C. Brains were then cut in 30 μm slices using a microtome and one slice was kept each 1 mm for infarct size measurement. The others were kept for immunohistochemistry and immunofluorescence. All the slices were stored in anti-freeze solution (30% ethylene glycol, 30% glycerol, 0.01 M NaH2PO4, 0.03 M Na2HPO4) at −20° C.
Immunohistochemistry. Free-floating brain slices were rinsed three times in PBS (phosphate buffer saline) and quenched in 3% H2O2 and 10% MetOH for 15 minutes. […]
Infarct measurements. […] Twelve slices 1 mm apart, were scanned, and the non-lesioned area of the infarcted hemisphere and the non-lesioned contralateral hemisphere were outlined and measured using the ImageJ software (National Institute of Health, USA). Infarct volume (mm^3) was determined by subtracting the area of the non-lesioned ipsilateral hemisphere from that of the intact contralateral hemisphere, and calculated by volumetric integration for each animal. […]
The animals were perfused and immunostained as in Example 1, and the infarct size was assessed as in Example 1.

[2] = test system: male Sprague Dawley rats; experiment: Paw placement test after photothrombotic stroke in the rat; conditions: rat
Description: Animals. All experiments were carried out with the approval of the Malmö-Lund animal review board and according to the ARRIVE guidelines. Animals were housed under reverse light conditions, with the testing performed during the dark period when the rats are active. The experiments were carried out on male Sprague Dawley rats (11 weeks of age, Charles River, Scanbur A/S Karlslunde, Denmark). The studies were subjected to randomization and carried out in a blinded fashion to the investigators who performed the surgeries and behavioral assessment.
Administration of compound. The compound was injected as a bolus dose of 1 ml/kg into the lower quadrant of the abdomen.
(§1) Experimental stroke. The animals were anesthetized by isoflurane (approximately 2% in 02 under spontaneous ventilation) and placed into stereotaxic frame. Temperature was monitored during surgery using a rectal temperature probe and animals were kept at 37.0-37.5±0.2° C. by means of a heating pad with feedback control. A sagittal skin incision was made and subcutaneous connective tissue was removed and the skull was dried. Thereafter, the photosensitizer dye Rose Bengal (0.5 mL at 10 mg/mL) was infused in the tail vein. Two minutes after injection, the skull was illuminated with cold light (Schott, KL 1500 LCD) on an area of 8 to 4.5 mm for 15 min (from +4 to −4 mm antero-posterior and from 0.5 to 5 mm on the left from bregma). Thereafter the tail and the scalp incisions were sutured and the rats transferred to their home cage. The functional deficit was assessed 2 h after the onset of the stroke using the limb placement test and only the animals having a score 0, for both fore- and hindlimb contralateral to the brain damaged hemisphere were used for the study.
Test of neurological function. The paw placement test. The cortical damage inflicted by the phothrombosis, causes a deficit due to neuronal loss in the sensori-motor area and depression of functions in neuronal networks in the vicinity of the lesion. […] This test provides information on the tactile/proprioceptive response to limb stimulation. Animals were placed with all 4 paws on the table top, and the paws to be tested along the edge. The rat was moved over the edge so the paws to be tested loose contact with the table surface. The ability of the animals to place the limb back onto the table surface when the rat was moved towards the edge was evaluated. Importantly, the head was held at 45° angle, so that visual and whisker/snout stimulation was prevented. A prompt placement of the limb onto the table was scored as 1. Incomplete placing of the limb was scored as 0.5, and complete extension of the limb and paw was scored as 0. In order to obtain groups with a similar functional deficit prior to treatment of the animals with drugs or vehicle, selective sorting was performed on day 2 after experimental stroke, a time point of recovery when the infarct development had subsided.
Administration of the compounds. The compounds were administrated orally (p.o.) by catheters placed in the stomach. The amount of solutions were 0.2 ml/rat and 0.1 ml/mice.
Induction of stroke was as made as in Example 1 for rats and as in Example 2 in mice. Assessment of neurological function was performed as in Example 1 for rats and as in Example 2 for mice. The animals were perfused and immunostained as in Example 1, and the infarct size was assessed as in Example 1.
Induction of stroke, assessment of neurological function, perfusion of animals, immunostaining and assessment of infarct size were made as in Example 1.

[3] = test system: male C57/BL6 mice; experiment: Paw placement test after photothrombotic stroke in the mouse
[4] = test system: male Sprague Dawley rats; experiment: Infarct size after photothrombotic stroke in the rat; conditions: 5 mg/kg i.p., FIG. 1B
Description: as §1, with “Two minutes after injection, the skull was illuminated with cold light (Schott, KL 1500 LCD) on an area of 8 to 4.5 mm for 15 min (from +4 to −4 mm antero-posterior and from 0.5 to 5 mm on the left from bregma). Thereafter the tail and the scalp incisions were sutured and the rats transferred to their home cage.” left out, “study. […]” for “study.”
Infarct measurements. […] Twelve slices 1 mm apart, were scanned, and the non-lesioned area of the infarcted hemisphere and the non-lesioned contralateral hemisphere were outlined and measured using the ImageJ software (National Institute of Health, USA). Infarct volume (mm^3) was determined by subtracting the area of the non-lesioned ipsilateral hemisphere from that of the intact contralateral hemisphere, and calculated by volumetric integration for each animal.

[5] = time course of recovery of function, treatment starting 2 days after stroke

Cc1nc(C#Cc2cccnc2)cs1 [SIN007, 3-[(2methyl-1,3-thiazol-4-yl)ethynyl]pyridine]
infarct size [1]: 8.9±0.9 mm^3
mean infarct size compared to vehicle [1]: the mean infarct size was the same in the two groups
paw placement score (recovery of paw placement function) ([2]; 5 mg/kg i.p. daily starting 2 days after stroke, assessed at 14 days after stroke, vs vehicle, p<0.001, FIG. 1A): almost complete recovery of paw placement function
persistence of recovery of function after termination of the treatment ([2]; after 5 days treatment, FIG. 1D): at least 7 days
days of treatment for a maximal treatment effect [2, 5]: 14 days
days of treatment required for a treatment effect [2, 5]: At least 4 days
recovery of function ([3]; 1 mg/kg i.p. daily for 3 days, standard housing, FIG. 2F): moderately enhances recovery of function
recovery of function, combined with enriched environment ([3]; 1 mg/kg i.p. for 3 days plus housing in enriched environment, FIG. 2F): significantly improves recovery
functional recovery (paw placement) ([3]; 5 mg/kg i.p. daily for 5 days starting 2 days after stroke, vs vehicle, p<0.01, FIG. 2A): strong recovery enhancing effect
paw placement score after 5 days of treatment ([3]; SIN007 5 mg/kg i.p. alone, vs vehicle, FIG. 2D): recovered paw function
infarct size compared to vehicle [4]: no difference in infarct size
infarct size ([4]; animals of FIG. 1A): 19.5±4.6 mm^3
